Source: ChEMBL document CHEMBL3137667, “[Drug-induced liver injury; fourteenth updated edition of the bibliographic database of liver injuries and related drugs]” (Gastroenterol Clin Biol, 2004)

What was measured:
[1] = human, serum
[2] = human
[3] = human; remark: listed apart in the source
[4] = Highest frequency of moderate liver toxicity observed during clinical trials, expressed as a percentage. [column '% BIOL' in source]; conditions: human
[5] = human, serum, 4383 h
[6] = human; remark: listed apart in the source
[7] = human; remark: listed apart in the source
[8] = human; remark: listed apart in the source
[9] = human, serum; remark: listed apart in the source
[10] = human; remark: listed apart in the source
[11] = Highest frequency of acute liver toxicity observed during clinical trials, expressed as a percentage. [column '% AIGUE' in source]; conditions: human
[12] = human; remark: listed apart in the source
[13] = human; remark: listed apart in the source
[14] = human; remark: listed apart in the source
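Throughout, for Hepatotoxicity (association with vascular disease): count of indexed literature references reporting vascular liver injury in humans, e.g. peliosis hepatitis, hepatic veno-occlusive disease or Budd-Chiari syndrome.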
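Throughout, for Hepatotoxicity (benign tumour): value is a count of indexed literature references citing a benign tumour confirmed by histopathology.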
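Throughout, for Hepatotoxicity (choleostasis): human cholestatic liver injury, shown by histopathology or by peak ALT or AST elevation over alkaline phosphatase ratio below 2, value counts indexed literature reports.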
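Throughout, for Hepatotoxicity (chronic liver disease): chronic liver injury confirmed by histopathology or persistently raised serum aminotransferase activity beyond 6 months, value given as the count of indexed literature references.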
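Throughout, for Hepatotoxicity (cirrhosis): value is a count of indexed literature references reporting cirrhosis confirmed by histopathology.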
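Throughout, for Hepatotoxicity (cytolytic): human cytolytic liver injury, shown by histopathology or by a ratio above 5 of peak ALT or AST elevation to alkaline phosphatase elevation, value counts indexed references.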
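Throughout, for Hepatotoxicity (granulomatous hepatitis): value is a count of indexed literature references reporting granulomatous liver disease confirmed by histopathology.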
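Throughout, for Hepatotoxicity (malignant tumour): malignant tumour confirmed by histopathology, value gives the count of indexed literature references reporting it.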
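Throughout, for Hepatotoxicity (severe hepatitis): human clinical data: severe hepatitis, meaning potentially life-threatening liver failure or clinically observed cases, the value counts how many indexed literature references report it.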
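Throughout, for Hepatotoxicity (steatosis): steatosis confirmed by histopathology, value is the count of indexed references.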

| Compound | Hepatotoxicity (acute) [1] | Hepatotoxicity (cirrhosis) [2] | Hepatotoxicity (benign tumour) [3] | Hepatotoxicity (moderate) [4] [%] | Hepatotoxicity (chronic liver disease) [5] | Hepatotoxicity (steatosis) [6] | Hepatotoxicity (granulomatous hepatitis) [7] | Hepatotoxicity (severe hepatitis) [8] | Hepatotoxicity (moderate) [9] | Hepatotoxicity (association with vascular disease) [10] | Hepatotoxicity (acute) [11] [%] | Hepatotoxicity (choleostasis) [12] | Hepatotoxicity (cytolytic) [13] | Hepatotoxicity (malignant tumour) [14] |
| --- | --- | --- | --- | --- | --- | --- | --- | --- | --- | --- | --- | --- | --- | --- |
| CO[C@H]1Cc2c(O)cc(O)cc2O[C@@H]1c1ccc(O)c(O)c1 [MECIADANOL] | 0 | 0 | 0 | 34.8 | 0 | 0 | 0 | 0 | 1 | 0 | 0 | 0 | 0 | 0 |
| CO/N=C(\C(=O)N[C@@H]1C(=O)N2C(C(=O)OCOC(=O)C(C)(C)C)=C(/C=C\c3scnc3C)CS[C@H]12)c1csc(N)n1 [CEFDITOREN PIVOXIL] | 0 | 0 | 0 | 37.5 | 0 | 0 | 0 | 0 | 41 | 0 | 0 | 0 | 0 | 0 |
| GALLIUM | 1 | 0 | 0 | 28.6 | 0 | 0 | 0 | 0 | 1 | 0 | 21.4 | 1 | 0 | 0 |
| COC(=O)Nc1nc2cc(C(=O)c3ccc(F)cc3)ccc2[nH]1 [FLUBENDAZOLE] | 1 | 0 | 0 | 6 | 0 | 0 | 0 | 0 | 1 | 0 | 0 | 0 | 1 | 0 |
| Cc1oc(=O)oc1COC(=O)[C@@H]1N2C(=O)[C@@H](NC(=O)[C@H](N)c3ccccc3)[C@H]2SC1(C)C [LENAMPICILLIN] | 0 | 0 | 0 | 22 | 0 | 0 | 0 | 0 | 9 | 0 | 0 | 0 | 0 | 0 |
| C[C@H](CSC(=O)c1ccccc1)C(=O)N1C[C@@H](Sc2ccccc2)C[C@H]1C(=O)O [ZOFENOPRIL] | 0 | 0 | 0 | 5.3 | 0 | 0 | 0 | 0 | 1 | 0 | 0 | 0 | 0 | 0 |
| O=c1[nH]c(=O)n([C@@H]2O[C@H](CO)[C@@H](O)[C@@H]2O)cc1/C=C/Br [SORIVUDINE] | 0 | 0 | 0 | 2 | 0 | 0 | 0 | 0 | 1 | 0 | 0 | 0 | 0 | 0 |
| CC(C)/N=C/Nc1ccc(-c2c[nH]cn2)cc1 [MIFENTIDINE] | 0 | 0 | 0 | 3.3 | 0 | 0 | 0 | 0 | 1 | 0 | 0 | 0 | 0 | 0 |
| COC(=O)C1=C(C)NC(C)=C(C(=O)OCC(C)C)C1c1ccccc1[N+](=O)[O-] (stereo not drawn) [NISOLDIPINE] | 0 | 0 | 0 | 12.5 | 0 | 0 | 0 | 0 | 1 | 0 | 0 | 0 | 0 | 0 |
| CC[C@H]1OC(=O)[C@H](C)[C@@H](O[C@H]2C[C@@](C)(OC)[C@@H](O)[C@H](C)O2)[C@H](C)[C@@H](O[C@@H]2O[C@H](C)C[C@H](N(C)C)[C@H]2O)[C@](C)(O)C[C@](C)(F)C(=O)[C@H](C)[C@@H](O)[C@]1(C)O [FLURITHROMYCIN] | 0 | 0 | 0 | 3.6 | 0 | 0 | 0 | 0 | 1 | 0 | 0 | 0 | 0 | 0 |
| CHOLESTYRAMINE | 0 | 0 | 0 | 30 | 0 | 0 | 0 | 0 | 11 | 0 | 0 | 0 | 0 | 0 |
| CNC1CCCN(c2c(F)cc3c(=O)c(C(=O)O)cn(C4CC4)c3c2OC)C1 (stereo not drawn) [BALOFLOXACIN] | 0 | 0 | 0 | 28.6 | 0 | 0 | 0 | 0 | 23 | 0 | 0 | 0 | 0 | 0 |
